The record followed here is patent US20230312550A1, “N-(2-(4-CYANOTHIAZOLIDIN-3-YL)-2-OXOETHYL)-QUINOLINE-4-CARBOXAMIDES” (AstraZeneca AB, priority 2020, published 2023).

The structures appear in SMILES notation. In brackets after ≈: the same amount, converted by molar mass.

Data set [1] in a line: Kinetic solubility. The following applies: kinetic from dmso stock, Solubility, kinetic solubility; n = 1 or average of n = 2-3.
Protocol: Kinetic solubility was measured as described in Comput Aided Mol Des 2015, 29, 795.
Data set [2] in a line: Caco-2 cell permeability. The following applies: human. On the technique in general: Caco-2 cells form a polarised layer with tight junctions and transporters.
Protocol: Caco-2 cell permeability was measured as described in Mol Pharm 2017, 14, 1601.
Data set [3] can be described thus: Metabolic stability in human liver microsomes (HLM). The settings on record: human, HLM CLint, n = 1 or average of n = 2-3. Background: Microsomes from liver hold many membrane-bound enzymes, among them those of drug oxidation.
Protocol: Metabolic stability in HLM was measured as described in J Comput Aided Mol Des 2015, 29, 795.
Data set [4] concerns the target Prolyl endopeptidase, Prolyl Oligopeptidase (hPREP) (Homo sapiens (Human), UniProt P48147). The experiment in a line: hPrep inhibition assay. The following applies: hPREP 0.6 nM, Z-Gly-Pro-amino-methylcoumarin 50 μM; read-out: PREP IC50. It counts as biochemical. An outline of the steps: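 Fluorogenic read-out (340 nm excitation, 460 nm emission) after 20 min at rt, using 50 μM final Z-Gly-Pro-aminomethylcoumarin and 0.6 nM final enzyme, following 15 min compound preincubation. Buffer pH 7.5 with glutathione and Triton X-100. IC50 via one-site model on % inhibition vs log concentration.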

For data set [5], the target named is human Fibroblast activation protein alpha (hFAP) (Homo sapiens (Human), UniProt Q12884). Kind of data set: hFAP inhibition assay (tight binders). Note: hFAP 2.4 pM. The data set is classed as biochemical. The following applies: Ala-Pro-AMC 20 μM, n = 1 or geometric mean n = 2-6. How it is done: The plates were read on a PHERAstar® reader with excitation 340 nm and emission 460 nm. Data were analyzed in Genedata Screener®. IC50 values were determined by plotting % inhibition versus log compound concentration and using a one site dose response model.
human Fibroblast activation protein alpha (hFAP), sequence (Q12884 38-760): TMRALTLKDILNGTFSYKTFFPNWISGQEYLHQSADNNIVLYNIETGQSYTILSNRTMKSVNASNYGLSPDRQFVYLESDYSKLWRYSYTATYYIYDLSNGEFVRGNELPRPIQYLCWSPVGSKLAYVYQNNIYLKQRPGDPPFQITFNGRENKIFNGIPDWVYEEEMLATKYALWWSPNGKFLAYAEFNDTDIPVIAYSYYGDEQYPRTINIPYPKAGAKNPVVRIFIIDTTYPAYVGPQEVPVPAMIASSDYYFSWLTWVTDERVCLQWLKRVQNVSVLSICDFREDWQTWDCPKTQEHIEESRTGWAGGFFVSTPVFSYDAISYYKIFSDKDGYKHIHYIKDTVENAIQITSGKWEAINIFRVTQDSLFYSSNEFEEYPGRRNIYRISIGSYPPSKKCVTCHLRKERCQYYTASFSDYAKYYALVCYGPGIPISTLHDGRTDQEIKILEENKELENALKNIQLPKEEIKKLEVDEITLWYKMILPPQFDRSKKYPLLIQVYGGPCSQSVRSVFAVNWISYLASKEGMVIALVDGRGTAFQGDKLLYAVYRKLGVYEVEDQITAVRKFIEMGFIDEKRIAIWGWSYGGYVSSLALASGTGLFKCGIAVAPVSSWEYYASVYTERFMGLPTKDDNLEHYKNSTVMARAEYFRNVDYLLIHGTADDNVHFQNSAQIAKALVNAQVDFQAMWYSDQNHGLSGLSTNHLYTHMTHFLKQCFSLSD

Data set [6] in a line: Metabolic stability in rat hepatocytes (rHep). The settings on record: n = 1 or geometric mean of n = 2-3.
Data set [7] has as its target hFAP (M39-A757) (Homo sapiens (Human), UniProt Q12884). The experiment in a line: hFAP binding assay (surface plasmon resonance). The settings on record: SPR, 20° C.; for hFAP Binding assay k(off) / hFAP Binding assay k(on): single cycle kinetics; for Kd: n = 1 or geometric mean n = 2-4. A general note: In SPR one partner is held on a chip, and binding of the other changes the refractive index at the surface.
Protocol: Compounds were tested in a direct binding assay using 8K surface plasmon resonance biosensor (GE Healthcare) at 20° C. Immobilization of hFAP (M39-A757) on a CMD200M sensor chip (Xantec) was performed using standard amine coupling procedure in immobilization buffer (10 mM HEPES, 150 mM NaCl, 0.05% Tween20, pH 7.4). The surface was washed with 10 mM NaOH, 1M NaCl before being activated with EDC/NHS (GE Healthcare), followed by immobilization of hFAP (in 10 mM Acetate pH 5.0). Finally, the surface was deactivated by ethanolamine. Immobilization levels of hFAP were around 4000-6000 RU. The reference spot was treated as described, omitting the injection of hFAP. Compound concentration series were injected over the immobilized protein in increasing concentrations (2-500 nM) using single cycle kinetics in running buffer (20 mM TRIS, 150 mM NaCl, 0.05% Tween20, 1% DMSO, pH 7.4). Interaction models were fitted globally to the experimental traces, enabling determination of kon, koff and Kd.

hFAP (M39-A757), sequence (Q12884 39-757): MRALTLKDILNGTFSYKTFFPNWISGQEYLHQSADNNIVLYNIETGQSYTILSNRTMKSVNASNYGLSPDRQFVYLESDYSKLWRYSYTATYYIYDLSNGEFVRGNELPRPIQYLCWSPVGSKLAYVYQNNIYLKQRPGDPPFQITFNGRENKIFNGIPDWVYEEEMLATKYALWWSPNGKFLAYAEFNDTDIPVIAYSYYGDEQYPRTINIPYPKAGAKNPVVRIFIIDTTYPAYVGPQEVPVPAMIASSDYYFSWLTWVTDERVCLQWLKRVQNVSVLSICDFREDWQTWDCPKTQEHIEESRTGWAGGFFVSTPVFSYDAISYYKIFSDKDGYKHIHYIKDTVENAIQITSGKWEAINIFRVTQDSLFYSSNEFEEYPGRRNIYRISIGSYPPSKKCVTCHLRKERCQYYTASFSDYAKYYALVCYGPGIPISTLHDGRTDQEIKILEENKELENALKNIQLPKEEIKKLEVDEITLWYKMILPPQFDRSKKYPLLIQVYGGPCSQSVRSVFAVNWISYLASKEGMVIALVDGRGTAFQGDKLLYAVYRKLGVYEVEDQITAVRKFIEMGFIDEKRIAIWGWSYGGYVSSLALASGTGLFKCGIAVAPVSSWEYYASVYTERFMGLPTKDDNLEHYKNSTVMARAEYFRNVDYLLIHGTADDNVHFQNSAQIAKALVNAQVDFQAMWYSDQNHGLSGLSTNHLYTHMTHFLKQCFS
Prolyl endopeptidase, Prolyl Oligopeptidase (hPREP), sequence (P48147 whole entry): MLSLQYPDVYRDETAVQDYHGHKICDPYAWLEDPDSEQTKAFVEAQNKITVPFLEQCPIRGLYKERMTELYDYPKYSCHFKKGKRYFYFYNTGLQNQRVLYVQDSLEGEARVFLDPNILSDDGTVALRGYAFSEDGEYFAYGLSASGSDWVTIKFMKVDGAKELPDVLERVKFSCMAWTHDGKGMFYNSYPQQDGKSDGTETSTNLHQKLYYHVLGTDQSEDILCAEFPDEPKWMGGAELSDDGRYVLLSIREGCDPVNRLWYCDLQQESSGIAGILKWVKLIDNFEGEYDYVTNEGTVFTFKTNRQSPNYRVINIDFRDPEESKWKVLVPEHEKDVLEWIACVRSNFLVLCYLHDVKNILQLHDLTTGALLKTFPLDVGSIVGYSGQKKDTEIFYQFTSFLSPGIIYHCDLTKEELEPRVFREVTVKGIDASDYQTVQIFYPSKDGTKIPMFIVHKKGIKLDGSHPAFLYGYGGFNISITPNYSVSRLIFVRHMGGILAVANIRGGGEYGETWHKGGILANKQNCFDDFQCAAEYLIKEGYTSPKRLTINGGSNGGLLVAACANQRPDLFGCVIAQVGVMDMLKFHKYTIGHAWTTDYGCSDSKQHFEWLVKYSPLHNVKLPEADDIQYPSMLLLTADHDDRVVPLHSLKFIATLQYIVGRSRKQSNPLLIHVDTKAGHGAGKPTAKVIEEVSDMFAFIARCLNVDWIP

Broadly, the solubility is the concentration that dissolves in the medium under given conditions. Higher therefore signals a readily soluble substance. Usually Papp A→B stands for how fast a substance crosses the layer from the apical side. Low readings indicate slow passage, high ones fast passage. The Papp B→A is how fast a substance crosses the layer from the basolateral side. The term efflux ratio denotes a quotient of directional permeabilities that is used to spot active efflux. One may read the microsomal CLint as the capacity of the preparation to metabolise the compound, expressed as a volume cleared per time. Read a high microsomal CLint as rapid turnover. What is called IC50 is the concentration that inhibits the measured activity by half. Compound `C[C@@]1(O)CCN(c2ccc3nccc(C(=O)NCC(=O)N4CSC[C@H]4C#N)c3c2)C1` [Example 167, N-(2-((R)-4-Cyanothiazolidin-3-yl)-2-oxoethyl)-6-((R)-3-hydroxy-3-methylpyrrolidin-1-yl)quinoline-4-carboxamide] gave a solubility in data set [1] of 240 µM (≈ 102 µg/mL). In addition, in data set [2], the Papp A→B came to 0.13 ×10⁻⁶ cm/s, the apparent permeability from basolateral to apical (Papp B→A) came to 9.5 ×10⁻⁶ cm/s and the efflux ratio was found to be 74. In addition, in data set [3], the intrinsic clearance (microsomal CLint) was under 3 µL/min/mg. Further, the IC50 in data set [4] was found to be 1000 nM. In addition, the IC50 in data set [5] amounted to 0.091 nM. Moreover, in data set [6], the “rHep CLint” value is under 1 μL/min/1E6.
Broadly, the Kd is a measure of binding affinity in units of concentration. In the case of `CC1(O)CCN(c2ccc3nccc(C(=O)NCC(=O)N4CSC[C@H]4C#N)c3c2)CC1` [Example 190, (R)—N-(2-(4-Cyanothiazolidin-3-yl)-2-oxoethyl)-6-(4-hydroxy-4-methyl-piperidin-1-yl)quinoline-4-carboxamide], in data set [1], the solubility is over 1000 µM. In data set [2], the apparent permeability from apical to basolateral (Papp A→B) stood at 0.32 ×10⁻⁶ cm/s, the Papp B→A turned out to be 7.6 ×10⁻⁶ cm/s and the efflux ratio worked out at 24. Moreover, in data set [7], the “hFAP Binding assay k(off)” value was determined as 0.000036 s⁻¹, the “hFAP Binding assay k(on)” value amounted to 1800000 M⁻¹ s⁻¹ and the Kd was found to be 0.02 nM. The same compound came in with an intrinsic clearance (microsomal CLint) in data set [3] of under 3 µL/min/mg. Besides, the IC50 in data set [4] is 690 nM. In data set [5], this compound returned an IC50 of 0.069 nM. The “rHep CLint” value in data set [6] is on record as under 1 μL/min/1E6.
In turn, `N#C[C@@H]1CSCN1C(=O)CNC(=O)c1ccnc2ccc(N3CC(F)(F)OC(F)(F)C3)cc12` [Example 5, (R)—N-(2-(4-Cyanothiazolidin-3-yl)-2-oxoethyl)-6-(2,2,6,6-tetrafluoromorpholino)quinoline-4-carboxamide] yielded a solubility in data set [1] of 11 µM (≈ 5.32 µg/mL). In data set [2], the Papp A→B came out at 1.9 ×10⁻⁶ cm/s, the Papp B→A is 32 ×10⁻⁶ cm/s and the efflux ratio came to 17. Binding in data set [7] was put at a Kd of 0.049 nM. Moreover, the microsomal CLint in data set [3] was found to be 93 µL/min/mg. In addition, in data set [4], the IC50 was 220 nM. In data set [5], this compound had an IC50 of 0.06 nM. The “rHep CLint” value in data set [6] came to 32 μL/min/1E6.
As usually defined, the Papp is a coefficient for how fast a substance crosses the barrier. High values mean ready permeation, low ones poor permeation. Take `N#C[C@@H]1CSCN1C(=O)CNC(=O)c1ccnc2ccc(N3C[C@H](O)C(F)(F)C3)cc12` (mixture of isomers) [Example 224, N-(2-((R)-4-Cyanothiazolidin-3-yl)-2-oxoethyl)-6-((RS)-3,3-difluoro-4-hydroxypyrrolidin-1-yl)quinoline-4-carboxamide]: in data set [1], the solubility is 50 µM. Moreover, the apparent permeability (Papp) in data set [2] is 1.2 ×10⁻⁶ cm/s. Moreover, in data set [7], the “hFAP Binding assay k(off)” value came out at 0.000068 s⁻¹, the “hFAP Binding assay k(on)” value is 3000000 M⁻¹ s⁻¹ and the Kd was 0.023 nM. In data set [3], this compound came in with a microsomal CLint of under 3 µL/min/mg. In addition, the IC50 in data set [4] worked out at 670 nM. The compound also came in with a concentration for half-maximal inhibition (IC50) in data set [5] of 0.073 nM. Besides, in data set [6], the “rHep CLint” value is under 1 μL/min/1E6.
In data set [1], `C[C@H]1CCN(c2ccc3nccc(C(=O)NCC(=O)N4CSC[C@H]4C#N)c3c2)C1=O` (single isomer, unassigned) [Example 201, N-(2-((R)-4-Cyanothiazolidin-3-yl)-2-oxoethyl)-6-((R*)-3-methyl-2-oxopyrrolidin-1-yl)quinoline-4-carboxamide] registered a solubility of 90 µM (≈ 38.1 µg/mL). The compound also gave a Papp in data set [2] of 4.8 ×10⁻⁶ cm/s. In addition, in data set [7], the “hFAP Binding assay k(off)” value was found to be 0.00010 s⁻¹, the “hFAP Binding assay k(on)” value came out at 1800000 M⁻¹ s⁻¹ and the Kd was 0.059 nM. Further, in data set [3], the microsomal CLint is under 3 µL/min/mg. The IC50 in data set [4] was 610 nM. This compound came in with an IC50 in data set [5] of under 0.025 nM. In data set [6], the “rHep CLint” value is under 1 μL/min/1E6.
In data set [1], `CC(C)C1(O)CCN(c2ccc3nccc(C(=O)NCC(=O)N4CSC[C@H]4C#N)c3c2)CC1` [Example 192, (R)—N-(2-(4-Cyanothiazolidin-3-yl)-2-oxoethyl)-6-(4-hydroxy-4-isopropyl-piperidin-1-yl)quinoline-4-carboxamide] returned a solubility of 530 µM (≈ 248 µg/mL). In data set [2], the Papp A→B was found to be 0.51 ×10⁻⁶ cm/s, the Papp B→A is 39 ×10⁻⁶ cm/s and the efflux ratio stood at 76. Also, in data set [7], the “hFAP Binding assay k(off)” value was determined as 0.000014 s⁻¹, the “hFAP Binding assay k(on)” value turned out to be 1300000 M⁻¹ s⁻¹ and the Kd came out at 0.0077 nM. Besides, in data set [3], the microsomal CLint worked out at 28 µL/min/mg. In addition, in data set [4], the IC50 was found to be 200 nM. This compound yielded an IC50 in data set [5] of 0.051 nM. Further, the “rHep CLint” value in data set [6] is given as 2.9 μL/min/1E6.
As for `N#C[C@@H]1CSCN1C(=O)CNC(=O)c1ccnc2ccc(N3CC(N4CCOCC4)C3)cc12` [Example 122, (R)—N-(2-(4-Cyanothiazolidin-3-yl)-2-oxoethyl)-6-(3-morpholinoazetidin-1-yl)quinoline-4-carboxamide], the solubility in data set [1] was over 1000 µM. In addition, in data set [2], the Papp A→B is 0.2 ×10⁻⁶ cm/s, the Papp B→A is 10 ×10⁻⁶ cm/s and the efflux ratio was found to be 50. For the same compound, in data set [7], the “hFAP Binding assay k(off)” value was determined as 0.000043 s⁻¹, the “hFAP Binding assay k(on)” value amounted to 1300000 M⁻¹ s⁻¹ and the Kd is 0.033 nM. For the same compound, the microsomal CLint in data set [3] was under 3 µL/min/mg. For the same compound, in data set [4], the 50% inhibitory concentration (IC50) was 840 nM. The compound further had an IC50 in data set [5] of 0.049 nM. In addition, the “rHep CLint” value in data set [6] is listed as under 1 μL/min/1E6.
With `CC1(O)CN(c2ccc3nccc(C(=O)NCC(=O)N4CSC[C@H]4C#N)c3c2)C1` [Example 165, (R)—N-(2-(4-Cyanothiazolidin-3-yl)-2-oxoethyl)-6-(3-hydroxy-3-methyl-azetidin-1-yl)quinoline-4-carboxamide], the solubility in data set [1] is over 1000 µM. The same compound registered an apparent permeability coefficient (Papp) in data set [2] of 0.51 ×10⁻⁶ cm/s. In data set [7], the “hFAP Binding assay k(off)” value turned out to be 0.000063 s⁻¹, the “hFAP Binding assay k(on)” value was found to be 1200000 M⁻¹ s⁻¹ and the Kd was 0.051 nM. The compound also gave a microsomal CLint in data set [3] of under 3 µL/min/mg. For the same compound, the IC50 in data set [4] came out at 670 nM. The IC50 in data set [5] was found to be 0.32 nM. The “rHep CLint” value in data set [6] was under 1 μL/min/1E6.
In data set [1], `N#C[C@@H]1CSCN1C(=O)CNC(=O)c1ccnc2ccc(N3CCC(=O)CC3)cc12` [Example 230, (R)—N-(2-(4-cyanothiazolidin-3-yl)-2-oxoethyl)-6-(4-oxopiperidin-1-yl)quinoline-4-carboxamide] yielded a solubility of over 1000 µM. Besides, in data set [2], the Papp came out at 2 ×10⁻⁶ cm/s, the apparent permeability from apical to basolateral (Papp A→B) was 34 ×10⁻⁶ cm/s and the Papp B→A amounted to 17 ×10⁻⁶ cm/s. The same compound had a microsomal CLint in data set [3] of under 3 µL/min/mg. Besides, the IC50 in data set [4] is 600 nM. This compound also registered an IC50 in data set [5] of 0.078 nM. The “rHep CLint” value in data set [6] is given as 2.8 μL/min/1E6.
`N#C[C@@H]1CSCN1C(=O)CNC(=O)c1ccnc2ccc(-n3cc4c(n3)CCCC4)cc12` [Example 115, (R)—N-(2-(4-Cyanothiazolidin-3-yl)-2-oxoethyl)-6-(4,5,6,7-tetrahydro-2H-indazol-2-yl)quinoline-4-carboxamide]: the solubility in data set [1] amounted to 0.59 µM (≈ 0.263 µg/mL). For the same compound, the Kd in data set [7] turned out to be 0.11 nM. Besides, the microsomal CLint in data set [3] stood at 120 µL/min/mg. Moreover, the IC50 turned out to be 130 nM in data set [4] and 0.04 nM in data set [5]. Also, in data set [6], the “rHep CLint” value amounted to 20 μL/min/1E6.
